In DBAASP one finds MIC data, which are given here for 11 compounds.

In brackets after ≈: the same amount, converted by molar mass. A value given as a limit tells only on which side of the number the result lay.

Holding throughout (assay): ≥ marks a high value that may be exact or a test limit, other limits are often not marked, values filed in µg/mL are converted to µM
The subject of experiment [1] is Candida albicans ATCC 2002.
The subject of experiment [2] is Escherichia coli ATCC 25922.
Experiment [3] concerns Pseudomonas aeruginosa CMCCB 10104.
In experiment [4] the test system is Staphylococcus aureus ATCC 25923.
Experiment [5] deals with Escherichia coli ATCC 25726.
In experiment [6] the test system is Candida albicans ATCC 90028.
Another experiment deals with Candida albicans.
The test system of experiment [7] is Enterococcus faecalis ATCC 29212.
The subject of another experiment is Escherichia coli UB1005.
In experiment [8] the test system is Pseudomonas aeruginosa H103.
Experiment [9] deals with Salmonella enterica serovar Typhimurium.
Experiment [10] deals with Staphylococcus epidermidis.

Broadly, the MIC is the lowest concentration that inhibits growth of the organism. A lower MIC goes with a more susceptible organism.

Regarding `CC[C@H](C)[C@H](NC(=O)CNC(=O)[C@H](C)NC(=O)[C@H](Cc1ccccc1)NC(=O)[C@H](CC(C)C)NC(=O)[C@H](CCCCN)NC(=O)[C@@H]1CCCN1C(=O)[C@H](CC(C)C)NC(=O)[C@@H](N)Cc1ccccc1)C(=O)N[C@H](C(=O)N[C@@H](CO)C(=O)N[C@@H](CCCCN)C(=O)N[C@@H](CC(N)=O)C(=O)N[C@@H](Cc1ccccc1)C(=O)O)[C@@H](C)CC` [FLPKLFAGIISKNF], the MIC in [1] stood at 3.32 µM (≈ 5.3 µg/mL); in experiment [2] it was 6.58 µM (≈ 10.5 µg/mL); in [3], 6.58 µM (≈ 10.5 µg/mL); in experiment [4], 13.2 µM (≈ 21 µg/mL).
As for `CC[C@H](C)[C@H](NC(=O)[C@H](CC(C)C)NC(=O)[C@H](Cc1cnc[nH]1)NC(=O)[C@@H]1CCCN1C(=O)[C@@H](NC(=O)[C@@H](NC(=O)[C@H](CCCCN)NC(=O)[C@H](C)NC(=O)[C@@H](NC(=O)CNC(=O)[C@H](CCCCN)NC(=O)[C@H](CC(C)C)NC(=O)CNC(=O)[C@H](CC(C)C)NC(=O)[C@H](CCCCN)NC(=O)[C@H](CC(C)C)NC(=O)[C@H](CC(C)C)NC(=O)[C@@H]1CCCN1C(=O)CNC(=O)[C@H](CC(C)C)NC(=O)[C@H](Cc1ccccc1)NC(=O)CN)C(C)C)C(C)C)[C@@H](C)CC)C(=O)N1CCC[C@H]1C(=O)N[C@@H](CO)C(=O)N[C@@H](CCCN=C(N)N)C(=O)N[C@@H](CCC(N)=O)C(=O)N[C@@H](CCC(N)=O)C(=O)O` [GFLGPLLKLGLKGVAKVIPHLIPSRQQ], the MIC in [5] is at least 40 µM; in [4], 2.5 µM (≈ 7.2 µg/mL).
On to `CC[C@H](C)[C@H](NC(=O)CN)C(=O)N[C@@H](Cc1ccccc1)C(=O)N[C@@H](CO)C(=O)N[C@@H](CCCCN)C(=O)N[C@H](C(=O)N[C@@H](CO)C(=O)NCC(=O)N[C@@H](CCCCN)C(=O)N[C@@H](C)C(=O)N[C@H](C(=O)N[C@@H](CCCCN)C(=O)N[C@@H](CC(N)=O)C(=O)N[C@@H](CC(C)C)C(=O)N[C@@H](Cc1ccccc1)C(=O)N[C@H](C(=O)N[C@@H](CCCCN)C(=O)NCC(=O)N[C@@H](C)C(=O)N[C@@H](CCCCN)C(=O)N[C@@H](CC(N)=O)C(=O)N[C@H](C(=O)NCC(=O)N[C@@H](CCCCN)C(=O)N[C@@H](CCC(=O)O)C(=O)N[C@H](C(=O)NCC(=O)N[C@@H](CCSC)C(=O)N[C@@H](CC(=O)O)C(=O)N[C@H](C(=O)N[C@H](C(=O)N[C@@H](CCCN=C(N)N)C(=O)N[C@H](C(=O)NCC(=O)N[C@H](C(=O)N[C@@H](CC(=O)O)C(=O)N[C@H](C(=O)N[C@H](C(=O)NCC(=O)N[C@H]1CSSC[C@@H](C(=O)O)NC(=O)[C@H](CCC(=O)O)NC(=O)CNC(=O)[C@H](CCCCN)NC(=O)[C@H]([C@@H](C)CC)NC(=O)[C@H](CCCCN)NC1=O)C(C)C)C(C)C)[C@@H](C)CC)[C@@H](C)O)C(C)C)C(C)C)C(C)C)C(C)C)[C@@H](C)CC)[C@@H](C)CC)[C@@H](C)CC` [GIFSKISGKAIKNLFIKGAKNVGKEVGMDVVRTGIDVVGCKIKGEC], for which the minimal inhibitory concentration (MIC) in experiment [1] was determined as 1.83 µM (≈ 8.8 µg/mL); in experiment [2], 1.83 µM (≈ 8.8 µg/mL); in experiment [3] it was 3.66 µM (≈ 17.6 µg/mL); in experiment [4], 0.915 µM (≈ 4.4 µg/mL).
Turning to `CC[C@H](C)[C@H](NC(=O)[C@@H](NC(=O)[C@@H](NC(=O)CNC(=O)[C@H](C)NC(=O)[C@@H](NC(=O)[C@H](CC(N)=O)NC(=O)[C@@H](NC(=O)[C@H](C)NC(=O)[C@H](CC(C)C)NC(=O)[C@H](CC(N)=O)NC(=O)[C@H](CCCCN)NC(=O)[C@H](Cc1ccccc1)NC(=O)[C@@H](NC(=O)[C@H](CO)NC(=O)[C@H](CC(C)C)NC(=O)[C@H](CC(C)C)NC(=O)CN)[C@@H](C)O)[C@@H](C)O)C(C)C)[C@@H](C)O)C(C)C)C(=O)N[C@@H](CC(=O)O)C(=O)N[C@H](C(=O)N[C@@H](CC(C)C)C(=O)N[C@@H](CCCCN)C(=O)N[C@H]1CSSC[C@@H](C(=O)N[C@@H](CCCN=C(N)N)C(=O)N[C@H](C(=O)O)[C@@H](C)O)NC(=O)CNC(=O)CNC(=O)[C@H]([C@@H](C)O)NC(=O)[C@H](C(C)C)NC(=O)[C@H](CCCCN)NC1=O)[C@@H](C)O` [GLLSTFKNLATNVAGTVIDTLKCKVTGGCRT], the MIC in [6] is at least 80 µM; in [5], at least 80 µM; in experiment [4], over 80 µM.
With `CC[C@H](C)[C@H](N)C(=O)N[C@H](C(=O)N[C@H](C(=O)N1CCC[C@H]1C(=O)N1CCC[C@H]1C(=O)N[C@H](C(=O)N[C@H](C(=O)N[C@@H](CCCCN)C(=O)N[C@@H](CC(=O)O)C(=O)N[C@H](C(=O)N[C@@H](CC(C)C)C(=O)N[C@@H](CCCCN)C(=O)N[C@@H](CCCCN)C(=O)N[C@@H](Cc1ccccc1)C(=O)N[C@H](C(=O)N[C@@H](CCCCN)C(=O)NCC(=O)N[C@@H](C)C(=O)N[C@H](C(=O)N[C@@H](CO)C(=O)NCC(=O)N[C@H](C(=O)N[C@@H](CCSC)C(N)=O)C(C)C)[C@@H](C)CC)[C@@H](C)CC)[C@@H](C)O)C(C)C)[C@@H](C)CC)[C@@H](C)CC)[C@@H](C)O` [ITIPPIVKDTLKKFIKGAISGVM], the MIC is at least 80 µM in [5] and 20 µM (≈ 49.4 µg/mL) in experiment [4].
`NCCCC[C@H](NC(=O)[C@H](Cc1c[nH]c2ccccc12)NC(=O)[C@H](Cc1c[nH]c2ccccc12)NC(=O)[C@H](CCCN=C(N)N)NC(=O)[C@@H](N)CCCCN)C(=O)N[C@@H](Cc1c[nH]c2ccccc12)C(=O)N[C@@H](Cc1c[nH]c2ccccc12)C(=O)N[C@@H](CCCN=C(N)N)C(=O)N[C@@H](CCCN=C(N)N)C(=O)O` [KRWWKWWRR]: the MIC was 5.6 µM (≈ 8.33 µg/mL) against Candida albicans; 11.1 µM (≈ 16.5 µg/mL) in experiment [7]; 2.8 µM (≈ 4.17 µg/mL) against Escherichia coli UB1005; 11.1 µM (≈ 16.5 µg/mL) in experiment [8]; 5.6 µM (≈ 8.33 µg/mL) in experiment [9]; 0.7 µM (≈ 1.04 µg/mL) in [4]. Also, the MIC in experiment [10] was determined as 0.7 µM (≈ 1.04 µg/mL).
For `NCCCC[C@H](N)C(=O)N[C@@H](CCCN=C(N)N)C(=O)N[C@@H](Cc1c[nH]c2ccccc12)C(=O)N[C@@H](Cc1c[nH]c2ccccc12)C(=O)N[C@@H](Cc1c[nH]c2ccccc12)C(=O)N[C@@H](Cc1c[nH]c2ccccc12)C(=O)N[C@@H](CCCN=C(N)N)C(=O)N[C@@H](Cc1ccccc1)C(=O)N[C@@H](CCCN=C(N)N)C(=O)O` [KRWWWWRFR], the MIC in the experiment with Candida albicans is 5.9 µM (≈ 8.89 µg/mL); in experiment [7], 11.7 µM (≈ 17.6 µg/mL); in the experiment with Escherichia coli UB1005 it was 2.9 µM (≈ 4.37 µg/mL); in experiment [8], at least 46.9 µM; in experiment [9], 5.9 µM (≈ 8.89 µg/mL); in experiment [4], 0.7 µM (≈ 1.05 µg/mL). Further, in [10], the MIC turned out to be 0.7 µM (≈ 1.05 µg/mL).
For `CC[C@H](C)[C@H](NC(=O)[C@H](Cc1ccccc1)NC(=O)[C@H](CCCN=C(N)N)NC(=O)[C@@H](N)CC(C)C)C(=O)N[C@@H](CC(C)C)C(=O)N[C@@H](Cc1c[nH]c2ccccc12)C(=O)N[C@@H](Cc1c[nH]c2ccccc12)C(=O)N[C@@H](CCCCN)C(=O)N[C@@H](CCCN=C(N)N)C(=O)O` [LRFILWWKR], the MIC against Candida albicans was 6.4 µM (≈ 8.43 µg/mL); in experiment [7], 6.4 µM (≈ 8.43 µg/mL); against Escherichia coli UB1005, 3.2 µM (≈ 4.22 µg/mL); in experiment [8], 25.7 µM (≈ 33.9 µg/mL); in experiment [9], 6.4 µM (≈ 8.43 µg/mL); in experiment [4] it was 1.6 µM (≈ 2.11 µg/mL). In experiment [10], the MIC amounted to 1.6 µM (≈ 2.11 µg/mL).
Consider `CC(C)C[C@H](NC(=O)[C@H](CCCCN)NC(=O)[C@H](CCCN=C(N)N)NC(=O)[C@H](Cc1c[nH]c2ccccc12)NC(=O)[C@@H](N)CC(N)=O)C(=O)N[C@@H](Cc1ccc(O)cc1)C(=O)N[C@@H](CCCN=C(N)N)C(=O)N[C@@H](CCCN=C(N)N)C(=O)N[C@@H](CCCCN)C(=O)O` [NWRKLYRRK], for which the MIC against Candida albicans is 86.5 µM (≈ 114 µg/mL); in experiment [7], over 86.5 µM; in the experiment with Escherichia coli UB1005 it was at least 86.5 µM; in experiment [8], at least 86.5 µM; in [9], at least 86.5 µM; in experiment [4], 86.5 µM (≈ 114 µg/mL). The compound also came in with an MIC in experiment [10] of at least 43.3 µM.
With `CC[C@H](C)[C@H](NC(=O)[C@H](CCCN=C(N)N)NC(=O)[C@H](CC(C)C)NC(=O)[C@H](CCCN=C(N)N)NC(=O)[C@@H](N)C(C)C)C(=O)N[C@@H](CCCN=C(N)N)C(=O)N[C@H](C(=O)N[C@@H](C)C(=O)N[C@H](C(=O)N[C@H](C(=O)N[C@@H](CCCN=C(N)N)C(=O)N[C@@H](CCCCN)C(N)=O)[C@@H](C)CC)C(C)C)C(C)C` [VRLRIRVAVIRK], the MIC turned out to be 2.03 µM (≈ 3 µg/mL) against Candida albicans; 2.03 µM (≈ 3 µg/mL) in the experiment on Escherichia coli UB1005; 4.06 µM (≈ 6 µg/mL) in [8]; 4.06 µM (≈ 6 µg/mL) in experiment [9]; 4.06 µM (≈ 6 µg/mL) in experiment [4]; 1.08 µM (≈ 1.6 µg/mL) in experiment [10].
As for `CSCC[C@H](NC(=O)[C@H](CCCCN)NC(=O)[C@H](Cc1ccccc1)NC(=O)[C@@H](N)Cc1c[nH]c2ccccc12)C(=O)N[C@@H](CCCN=C(N)N)C(=O)N[C@@H](Cc1c[nH]c2ccccc12)C(=O)N[C@@H](Cc1c[nH]c2ccccc12)C(=O)NCC(=O)N[C@@H](CCCN=C(N)N)C(=O)O` [WFKMRWWGR], the MIC in the experiment on Candida albicans was 11.5 µM (≈ 15.6 µg/mL); in experiment [7], 11.5 µM (≈ 15.6 µg/mL); in the experiment on Escherichia coli UB1005 it was 5.8 µM (≈ 7.85 µg/mL); in experiment [8], at least 46.1 µM; in experiment [9] it was 23.1 µM (≈ 31.2 µg/mL); in experiment [4], 2.9 µM (≈ 3.92 µg/mL). The same compound gave an MIC in experiment [10] of 2.9 µM (≈ 3.92 µg/mL).
